{
  "source": "paper doi:10.1101/2021.09.30.462449v1",
  "about": "(biorxiv, 2021)",
  "assay_in_all_cases": "biochemical",
  "details_in_all_cases": "read-out: % inhibition mean (Z'Lyte)",
  "key": {"PRKCD (PKC delta)": {"target": "PRKCD (PKC delta) (Homo sapiens, UniProt Q05655)"}, "MAPK10 (JNK3)": {"target": "MAPK10 (JNK3) (Homo sapiens, UniProt P53779)"}, "MAPK11 (p38 beta)": {"target": "MAPK11 (p38 beta) (Homo sapiens, UniProt Q15759)"}, "CAMK4 (CaMKIV)": {"target": "CAMK4 (CaMKIV) (Homo sapiens, UniProt Q16566)", "sequence (Q16566 whole entry)": "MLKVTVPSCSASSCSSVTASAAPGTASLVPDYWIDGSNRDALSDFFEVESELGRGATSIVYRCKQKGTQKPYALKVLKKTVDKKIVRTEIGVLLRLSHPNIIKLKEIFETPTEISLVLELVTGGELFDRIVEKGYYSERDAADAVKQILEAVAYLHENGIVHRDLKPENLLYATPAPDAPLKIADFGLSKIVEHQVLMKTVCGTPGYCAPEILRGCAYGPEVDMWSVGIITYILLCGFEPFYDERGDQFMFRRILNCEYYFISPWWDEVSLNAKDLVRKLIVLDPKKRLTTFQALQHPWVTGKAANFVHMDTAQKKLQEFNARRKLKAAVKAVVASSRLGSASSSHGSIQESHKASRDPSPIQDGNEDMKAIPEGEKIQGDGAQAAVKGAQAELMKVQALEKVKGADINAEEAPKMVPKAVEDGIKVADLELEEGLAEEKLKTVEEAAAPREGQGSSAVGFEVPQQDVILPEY"}, "CSK": {"target": "CSK (Homo sapiens, UniProt P41240)"}, "LYN B": {"target": "LYN B (Homo sapiens, UniProt P07948)"}, "DYRK4": {"target": "DYRK4 (Homo sapiens, UniProt Q9NR20)"}, "STK25 (YSK1)": {"target": "STK25 (YSK1) (Homo sapiens, UniProt O00506)"}, "PRKG1": {"target": "PRKG1 (Homo sapiens, UniProt Q13976)"}, "SRC N1": {"target": "SRC N1 (Homo sapiens, UniProt P12931)"}, "LCK": {"target": "LCK (Homo sapiens, UniProt P06239)", "sequence (P06239 whole entry)": "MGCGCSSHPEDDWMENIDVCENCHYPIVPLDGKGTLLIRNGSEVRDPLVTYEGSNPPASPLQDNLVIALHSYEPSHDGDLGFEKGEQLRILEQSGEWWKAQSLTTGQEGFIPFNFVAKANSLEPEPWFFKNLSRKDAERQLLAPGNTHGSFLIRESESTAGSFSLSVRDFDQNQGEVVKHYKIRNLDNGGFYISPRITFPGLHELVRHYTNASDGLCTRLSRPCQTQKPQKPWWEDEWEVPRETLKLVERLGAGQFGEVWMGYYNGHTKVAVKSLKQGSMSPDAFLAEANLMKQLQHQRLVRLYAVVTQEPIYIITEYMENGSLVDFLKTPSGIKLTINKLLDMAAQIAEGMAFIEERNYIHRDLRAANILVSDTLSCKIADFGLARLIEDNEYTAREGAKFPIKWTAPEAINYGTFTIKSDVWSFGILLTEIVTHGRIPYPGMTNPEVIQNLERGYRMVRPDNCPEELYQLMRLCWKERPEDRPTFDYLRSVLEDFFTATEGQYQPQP"}, "CDC42 BPG (MRCKG)": {"target": "CDC42 BPG (MRCKG) (Homo sapiens, UniProt Q6DT37)"}, "[1]": {"target": "CSNK1E (CK1 epsilon) R178C (Homo sapiens, UniProt P49674, R178C)", "sequence (P49674 whole entry R178C)": "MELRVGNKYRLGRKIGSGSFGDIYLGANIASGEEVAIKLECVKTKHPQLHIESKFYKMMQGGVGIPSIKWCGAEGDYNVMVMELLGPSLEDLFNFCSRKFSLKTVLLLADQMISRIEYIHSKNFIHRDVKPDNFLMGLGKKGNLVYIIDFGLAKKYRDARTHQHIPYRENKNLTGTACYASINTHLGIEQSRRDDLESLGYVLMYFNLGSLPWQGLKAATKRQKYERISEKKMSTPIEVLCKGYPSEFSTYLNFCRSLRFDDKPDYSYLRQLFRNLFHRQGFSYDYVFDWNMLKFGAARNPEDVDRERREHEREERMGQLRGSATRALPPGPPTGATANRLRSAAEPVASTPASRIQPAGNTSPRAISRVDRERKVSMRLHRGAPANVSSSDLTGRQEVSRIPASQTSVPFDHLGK"}, "EPHA8": {"target": "EPHA8 (Homo sapiens, UniProt P29322)", "sequence (P29322 whole entry)": "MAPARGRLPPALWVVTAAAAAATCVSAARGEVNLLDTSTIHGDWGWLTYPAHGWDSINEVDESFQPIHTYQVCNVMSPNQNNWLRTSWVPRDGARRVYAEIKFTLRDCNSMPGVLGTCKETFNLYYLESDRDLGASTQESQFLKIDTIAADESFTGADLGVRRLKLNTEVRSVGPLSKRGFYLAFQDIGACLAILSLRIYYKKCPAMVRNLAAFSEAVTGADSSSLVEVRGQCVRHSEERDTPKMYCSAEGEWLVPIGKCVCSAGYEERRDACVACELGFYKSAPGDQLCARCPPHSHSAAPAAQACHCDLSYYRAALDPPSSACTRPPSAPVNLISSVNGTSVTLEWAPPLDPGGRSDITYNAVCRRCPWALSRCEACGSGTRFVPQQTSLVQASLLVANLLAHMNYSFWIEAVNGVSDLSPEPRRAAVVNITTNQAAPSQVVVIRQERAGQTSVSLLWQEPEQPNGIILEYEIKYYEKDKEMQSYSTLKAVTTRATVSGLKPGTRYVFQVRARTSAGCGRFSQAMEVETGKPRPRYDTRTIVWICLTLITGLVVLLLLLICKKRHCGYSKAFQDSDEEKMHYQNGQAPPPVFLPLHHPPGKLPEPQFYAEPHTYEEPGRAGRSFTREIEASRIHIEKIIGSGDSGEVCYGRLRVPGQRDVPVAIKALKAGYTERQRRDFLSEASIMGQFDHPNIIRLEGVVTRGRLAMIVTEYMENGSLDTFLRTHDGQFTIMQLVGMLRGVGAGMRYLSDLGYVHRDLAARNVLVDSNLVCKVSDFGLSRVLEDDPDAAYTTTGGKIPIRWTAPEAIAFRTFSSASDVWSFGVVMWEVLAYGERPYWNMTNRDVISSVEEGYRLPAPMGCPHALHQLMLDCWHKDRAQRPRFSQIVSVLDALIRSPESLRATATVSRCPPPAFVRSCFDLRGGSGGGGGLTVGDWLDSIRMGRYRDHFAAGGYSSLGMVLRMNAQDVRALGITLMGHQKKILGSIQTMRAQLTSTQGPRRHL"}, "SYK": {"target": "SYK (Homo sapiens, UniProt P43405)"}, "TAOK2 (TAO1)": {"target": "TAOK2 (TAO1) (Homo sapiens, UniProt Q9UL54)", "sequence (Q9UL54 whole entry)": "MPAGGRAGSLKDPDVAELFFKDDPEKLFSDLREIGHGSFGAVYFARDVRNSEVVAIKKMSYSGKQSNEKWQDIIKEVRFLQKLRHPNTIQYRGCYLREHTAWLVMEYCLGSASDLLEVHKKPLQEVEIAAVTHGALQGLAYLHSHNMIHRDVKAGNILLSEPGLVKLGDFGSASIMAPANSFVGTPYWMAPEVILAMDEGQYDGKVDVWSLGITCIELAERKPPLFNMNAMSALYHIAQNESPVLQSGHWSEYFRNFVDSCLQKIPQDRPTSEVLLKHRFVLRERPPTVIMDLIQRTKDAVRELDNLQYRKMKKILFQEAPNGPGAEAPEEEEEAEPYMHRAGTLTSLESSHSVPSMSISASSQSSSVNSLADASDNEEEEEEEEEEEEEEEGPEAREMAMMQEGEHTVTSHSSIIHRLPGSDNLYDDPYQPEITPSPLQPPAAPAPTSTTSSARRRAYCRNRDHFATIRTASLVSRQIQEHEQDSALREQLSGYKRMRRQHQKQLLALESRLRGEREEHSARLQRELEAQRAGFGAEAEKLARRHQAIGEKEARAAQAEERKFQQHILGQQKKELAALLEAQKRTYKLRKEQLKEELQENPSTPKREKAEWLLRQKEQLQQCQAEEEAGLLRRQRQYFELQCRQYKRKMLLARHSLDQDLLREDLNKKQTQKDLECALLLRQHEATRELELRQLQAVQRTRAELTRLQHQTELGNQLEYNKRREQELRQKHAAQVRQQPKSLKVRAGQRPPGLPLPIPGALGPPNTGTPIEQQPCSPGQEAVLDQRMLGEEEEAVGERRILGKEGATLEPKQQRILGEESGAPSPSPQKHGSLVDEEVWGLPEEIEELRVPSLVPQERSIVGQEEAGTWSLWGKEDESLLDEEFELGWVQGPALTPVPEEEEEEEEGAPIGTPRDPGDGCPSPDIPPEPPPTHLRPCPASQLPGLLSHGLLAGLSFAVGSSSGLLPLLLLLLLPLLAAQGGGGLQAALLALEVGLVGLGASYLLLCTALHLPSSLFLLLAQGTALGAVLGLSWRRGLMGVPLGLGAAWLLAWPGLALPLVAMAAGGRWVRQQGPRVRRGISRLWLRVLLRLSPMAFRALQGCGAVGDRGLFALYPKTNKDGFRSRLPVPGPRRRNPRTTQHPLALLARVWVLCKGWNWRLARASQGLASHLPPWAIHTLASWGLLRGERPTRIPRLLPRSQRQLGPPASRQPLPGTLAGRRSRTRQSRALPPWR"}, "AXL": {"target": "AXL (Homo sapiens, UniProt P30530)"}, "PHKG2": {"target": "PHKG2 (Homo sapiens, UniProt P15735)"}, "DAPK3 (ZIPK)": {"target": "DAPK3 (ZIPK) (Homo sapiens, UniProt O43293)"}, "PKN1 (PRK1)": {"target": "PKN1 (PRK1) (Homo sapiens, UniProt Q16512)", "sequence (Q16512 whole entry)": "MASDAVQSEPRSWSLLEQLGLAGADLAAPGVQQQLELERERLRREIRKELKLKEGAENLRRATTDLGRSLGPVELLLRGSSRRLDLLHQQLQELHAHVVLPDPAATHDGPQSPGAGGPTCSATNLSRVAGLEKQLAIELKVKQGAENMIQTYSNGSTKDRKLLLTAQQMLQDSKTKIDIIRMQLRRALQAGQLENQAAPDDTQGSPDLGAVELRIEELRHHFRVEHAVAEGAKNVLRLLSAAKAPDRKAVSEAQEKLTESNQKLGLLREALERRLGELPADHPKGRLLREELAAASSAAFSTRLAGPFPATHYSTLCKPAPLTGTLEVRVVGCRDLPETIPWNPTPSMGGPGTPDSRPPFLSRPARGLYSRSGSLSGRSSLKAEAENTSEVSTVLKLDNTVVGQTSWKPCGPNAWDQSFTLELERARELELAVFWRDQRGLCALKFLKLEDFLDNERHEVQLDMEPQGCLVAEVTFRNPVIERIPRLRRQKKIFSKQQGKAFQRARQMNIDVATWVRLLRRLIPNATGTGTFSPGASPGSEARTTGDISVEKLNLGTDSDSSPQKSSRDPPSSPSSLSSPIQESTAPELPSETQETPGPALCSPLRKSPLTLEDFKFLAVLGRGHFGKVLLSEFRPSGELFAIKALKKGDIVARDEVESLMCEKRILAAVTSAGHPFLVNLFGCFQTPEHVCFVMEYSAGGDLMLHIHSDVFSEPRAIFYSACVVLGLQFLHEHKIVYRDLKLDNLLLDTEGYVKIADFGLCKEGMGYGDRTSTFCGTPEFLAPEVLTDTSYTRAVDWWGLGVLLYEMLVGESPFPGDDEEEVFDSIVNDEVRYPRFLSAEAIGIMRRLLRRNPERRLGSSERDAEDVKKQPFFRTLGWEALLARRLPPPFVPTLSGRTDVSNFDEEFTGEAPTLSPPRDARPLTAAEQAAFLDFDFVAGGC"}, "SRPK2": {"target": "SRPK2 (Homo sapiens, UniProt P78362)"}, "NEK1": {"target": "NEK1 (Homo sapiens, UniProt Q96PY6)"}, "PRKCQ (PKC theta)": {"target": "PRKCQ (PKC theta) (Homo sapiens, UniProt Q04759)"}, "FGFR3 V555M": {"target": "FGFR3 V555M (Homo sapiens, UniProt P22607, V555M)"}, "PAK3": {"target": "PAK3 (Homo sapiens, UniProt O75914)"}, "MET (cMet)": {"target": "MET (cMet) (Homo sapiens, UniProt P08581)"}, "FRK (PTK5)": {"target": "FRK (PTK5) (Homo sapiens, UniProt P42685)"}, "MAPK8 (JNK1)": {"target": "MAPK8 (JNK1) (Homo sapiens, UniProt P45983)"}, "GSK3B (GSK3 beta)": {"target": "GSK3B (GSK3 beta) (Homo sapiens, UniProt P49841)", "sequence (P49841 whole entry)": "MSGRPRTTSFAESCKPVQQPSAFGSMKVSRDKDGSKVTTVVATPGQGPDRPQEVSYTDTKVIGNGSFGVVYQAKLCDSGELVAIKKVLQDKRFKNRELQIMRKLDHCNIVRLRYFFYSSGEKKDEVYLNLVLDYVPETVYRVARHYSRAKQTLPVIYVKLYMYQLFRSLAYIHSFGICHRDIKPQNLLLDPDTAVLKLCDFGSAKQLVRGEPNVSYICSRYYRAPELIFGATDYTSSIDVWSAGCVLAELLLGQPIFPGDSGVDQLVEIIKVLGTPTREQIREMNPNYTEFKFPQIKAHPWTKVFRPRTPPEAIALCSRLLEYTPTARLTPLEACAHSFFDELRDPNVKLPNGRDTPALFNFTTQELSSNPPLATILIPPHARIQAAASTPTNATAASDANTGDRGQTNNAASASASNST"}},
  "data": [
    {"molecule": "COc1ccc2nc3cc(Cl)ccc3c(Nc3cc(CN4CCCC4)c(O)c(CN4CCCC4)c3)c2n1", "note": "[Pyronaridine, 4-[(7-Chloro-2-methoxybenzo[b][1,5]naphthyridin-10-yl)amino]-2,6-bis(1-pyrrolidinylmethyl)phenol phosphate (1:4)]", "values": [
      {"measurement": "inhibition at 1 µM", "setting": "PRKCD (PKC delta)", "result": 3, "unit": "%"},
      {"measurement": "inhibition at 1 µM", "setting": "MAPK10 (JNK3)", "result": 0, "unit": "%"},
      {"measurement": "inhibition at 1 µM", "setting": "MAPK11 (p38 beta)", "result": -8, "unit": "%"},
      {"measurement": "inhibition at 1 µM", "setting": "CAMK4 (CaMKIV)", "result": -5, "unit": "%"},
      {"measurement": "inhibition at 1 µM", "setting": "CSK", "result": -3, "unit": "%"},
      {"measurement": "inhibition at 1 µM", "setting": "LYN B", "result": -2, "unit": "%"},
      {"measurement": "inhibition at 1 µM", "setting": "DYRK4", "result": 0, "unit": "%"},
      {"measurement": "inhibition at 1 µM", "setting": "STK25 (YSK1)", "result": -7, "unit": "%"},
      {"measurement": "inhibition at 1 µM", "setting": "PRKG1", "result": -6, "unit": "%"},
      {"measurement": "inhibition at 1 µM", "setting": "SRC N1", "result": 5, "unit": "%"},
      {"measurement": "inhibition at 1 µM", "setting": "LCK", "result": 12, "unit": "%"},
      {"measurement": "inhibition at 1 µM", "setting": "CDC42 BPG (MRCKG)", "result": 1, "unit": "%"},
      {"measurement": "inhibition at 1 µM", "setting": "[1]", "result": 1, "unit": "%"},
      {"measurement": "inhibition at 1 µM", "setting": "EPHA8", "result": 1, "unit": "%"},
      {"measurement": "inhibition at 1 µM", "setting": "SYK", "result": 1, "unit": "%"},
      {"measurement": "inhibition at 1 µM", "setting": "TAOK2 (TAO1)", "result": -1, "unit": "%"},
      {"measurement": "inhibition at 1 µM", "setting": "AXL", "result": 1, "unit": "%"},
      {"measurement": "inhibition at 1 µM", "setting": "PHKG2", "result": -2, "unit": "%"},
      {"measurement": "inhibition at 1 µM", "setting": "DAPK3 (ZIPK)", "result": 2, "unit": "%"},
      {"measurement": "inhibition at 1 µM", "setting": "PKN1 (PRK1)", "result": 1, "unit": "%"},
      {"measurement": "inhibition at 1 µM", "setting": "SRPK2", "result": -4, "unit": "%"},
      {"measurement": "inhibition at 1 µM", "setting": "NEK1", "result": -1, "unit": "%"},
      {"measurement": "inhibition at 1 µM", "setting": "PRKCQ (PKC theta)", "result": 8, "unit": "%"},
      {"measurement": "inhibition at 1 µM", "setting": "FGFR3 V555M", "result": -1, "unit": "%"},
      {"measurement": "inhibition at 1 µM", "setting": "PAK3", "result": -7, "unit": "%"},
      {"measurement": "inhibition at 1 µM", "setting": "MET (cMet)", "result": -1, "unit": "%"},
      {"measurement": "inhibition at 1 µM", "setting": "FRK (PTK5)", "result": -2, "unit": "%"},
      {"measurement": "inhibition at 1 µM", "setting": "MAPK8 (JNK1)", "result": 3, "unit": "%"},
      {"measurement": "inhibition at 1 µM", "setting": "GSK3B (GSK3 beta)", "result": 8, "unit": "%"}
    ]}
  ]
}
